According to US10160747B2, “Compounds and methods for kinase modulation, and indications therefor” (Plexxikon Inc., priority 2016, dated 2018):
pIC50: −log10 of the molar value.

Legend:
FLT3-ITD = molecular target: T1, FLT3-ITD (Homo sapiens, UniProt P36888); assay: FLT3-ITD recombinant enzyme kinase assay (AlphaScreen); type: biochemical; conditions: 8 pt; read-out: FLT3_ITD 8 pt: IC50
T1 sequence (P36888 1-993): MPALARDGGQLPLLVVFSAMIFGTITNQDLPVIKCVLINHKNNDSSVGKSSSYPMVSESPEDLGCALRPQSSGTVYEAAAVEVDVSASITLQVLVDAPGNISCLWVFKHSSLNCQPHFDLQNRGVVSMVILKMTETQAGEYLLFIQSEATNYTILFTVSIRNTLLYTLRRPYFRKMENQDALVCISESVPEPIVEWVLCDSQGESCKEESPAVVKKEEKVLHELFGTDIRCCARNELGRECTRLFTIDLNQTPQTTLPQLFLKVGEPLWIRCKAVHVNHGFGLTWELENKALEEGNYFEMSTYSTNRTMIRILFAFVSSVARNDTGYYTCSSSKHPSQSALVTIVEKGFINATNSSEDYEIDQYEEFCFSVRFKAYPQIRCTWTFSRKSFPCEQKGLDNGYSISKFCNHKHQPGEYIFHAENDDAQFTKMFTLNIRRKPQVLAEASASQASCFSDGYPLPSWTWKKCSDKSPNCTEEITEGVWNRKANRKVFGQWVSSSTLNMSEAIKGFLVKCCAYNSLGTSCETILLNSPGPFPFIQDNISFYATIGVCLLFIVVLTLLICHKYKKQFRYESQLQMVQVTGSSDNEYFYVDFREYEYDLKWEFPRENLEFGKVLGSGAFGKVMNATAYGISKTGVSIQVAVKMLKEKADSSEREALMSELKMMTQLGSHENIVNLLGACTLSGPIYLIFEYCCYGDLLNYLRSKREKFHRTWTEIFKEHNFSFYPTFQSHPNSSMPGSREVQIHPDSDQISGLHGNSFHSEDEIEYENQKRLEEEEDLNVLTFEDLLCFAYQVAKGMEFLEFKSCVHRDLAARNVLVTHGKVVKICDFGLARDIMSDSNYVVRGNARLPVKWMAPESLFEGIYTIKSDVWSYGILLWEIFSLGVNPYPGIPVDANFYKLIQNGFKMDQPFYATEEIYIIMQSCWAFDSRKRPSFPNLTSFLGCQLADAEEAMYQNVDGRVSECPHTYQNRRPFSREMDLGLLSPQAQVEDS
Summary of the method: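 Kinase activity of recombinant FLT3-ITD, FLT3-D835Y and c-KIT was followed via phosphotyrosine formation on a 30 nM biotin-peptide substrate, captured on streptavidin donor and anti-phosphotyrosine acceptor AlphaScreen beads. ATP was set at 10 μM for FLT3 and 100 μM for c-KIT.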

[1] = system: MOLM-14 F691L (endogenous FLT3 ITD and transfected FLT3 F691L); assay: MOLM-14 F691L cell proliferation assay (CellTiter-Glo); type: cell-based; conditions: Homo sapiens, MOLM-14, 72 h; 3 d growth, GMean
Summary of the method: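 MOLM-14 cells (FLT3 ITD) carrying D835Y or F691L, 1×10^4 cells/well, eight 1:3 dilutions from 1 μM final, 0.2% DMSO, 3 days at 37 °C, 5% CO2. Viability by CellTiter-Glo luminescence (ATP content); IC50 from concentration-response.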

In the case of `Cc1nn(C)cc1Nc1ncc(-c2ccc(CC(=O)Nc3cnc(C)c(C(F)(F)F)c3)c(F)c2)cn1` [Compound P-0077, 2-[4-[2-[(1,3-dimethylpyrazol-4-yl)amino]pyrimidin-5-yl]-2-fluoro-phenyl]-N-[6-methyl-5-(trifluoromethyl)-3-pyridyl]acetamide], the pIC50 (FLT3-ITD) was 5.00 to 10.00 and the pIC50 [1] was 5.00 to 10.00.
Molecule `Cn1cnc(Nc2ncc(-c3cc(F)c(CC(=O)Nc4cncc(C(F)(F)F)c4)cc3F)cn2)c1` [Compound P-0078, 2-(2,5-difluoro-4-(2-((1-methyl-1H-imidazol-4-yl)amino)pyrimidin-5-yl)phenyl)-N-(5-(trifluoromethyl)pyridin-3-yl)acetamide] has a pIC50 (FLT3-ITD) of 5.00 to 10.00 and a pIC50 [1] of 5.00 to 10.00.
Molecule `Cc1ncc(NC(=O)Cc2ccc(-c3cnc4[nH]cc(Cl)c4n3)cc2)cc1C(F)(F)F` [Compound P-0079, 2-(4-(7-chloro-5H-pyrrolo[2,3-b]pyrazin-2-yl)phenyl)-N-(6-methyl-5-(trifluoromethyl)pyridin-3-yl)acetamide] has a pIC50 (FLT3-ITD) of 5.00 to 10.00 and a pIC50 [1] of 5.00 to 10.00.
`Cn1cc(Nc2ncc(-c3ccc(CC(=O)Nc4cncc(C5CC5)c4)c(F)c3)cn2)cn1` [Compound P-0081, N-(5-cyclopropyl-3-pyridyl)-2-[2-fluoro-4-[2-[(1-methylpyrazol-4-yl)amino]pyrimidin-5-yl]phenyl]acetamide] showed a pIC50 (FLT3-ITD) of 5.00 to 10.00 and a pIC50 [1] of 5.00 to 10.00.
`Cn1cc(Nc2ncc(-c3ccc(CC(=O)Nc4cc(C(F)(F)F)ccn4)c(F)c3)cn2)cn1` [Compound P-0082, 2-[2-fluoro-4-[2-[(1-methylpyrazol-4-yl)amino]pyrimidin-5-yl]phenyl]-N-[4-(trifluoromethyl)-2-pyridyl]acetamide] gave a pIC50 (FLT3-ITD) of 5.00 to 10.00 and a pIC50 [1] of 5.00 to 10.00.
`Cn1cc(Nc2ncc(-c3ccc(CC(=O)Nc4ccnc(C(F)(F)F)c4)c(F)c3)cn2)cn1` [Compound P-0083, 2-[2-fluoro-4-[2-[(1-methylpyrazol-4-yl)amino]pyrimidin-5-yl]phenyl]-N-[2-(trifluoromethyl)-4-pyridyl]acetamide] showed a pIC50 (FLT3-ITD) of 5.00 to 10.00 and a pIC50 [1] of 5.00 to 10.00.
`Cn1cc(Nc2ncc(-c3ccc(CC(=O)Nc4cncc(C(F)(F)F)c4)c(F)c3)cn2)cn1` [Compound P-0084, 2-[2-fluoro-4-[2-[(1-methylpyrazol-4-yl)amino]pyrimidin-5-yl]phenyl]-N-[5-(trifluoromethyl)-3-pyridyl]acetamide] gave a pIC50 (FLT3-ITD) of 5.00 to 10.00 and a pIC50 [1] of 5.00 to 10.00.
`COc1cncc(NC(=O)Cc2ccc(-c3cnc(Nc4cnn(C)c4)nc3)cc2F)c1` [Compound P-0086, 2-[2-fluoro-4-[2-[(1-methylpyrazol-4-yl)amino]pyrimidin-5-yl]phenyl]-N-(5-methoxy-3-pyridyl)acetamide] showed a pIC50 (FLT3-ITD) of 5.00 to 10.00 and a pIC50 [1] of 5.00 to 10.00.
Work on `Cn1cc(Nc2ncc(-c3ccc(CC(=O)NCc4ccc(C(F)(F)F)nc4)c(F)c3)cn2)cn1` [Compound P-0087, 2-[2-fluoro-4-[2-[(1-methylpyrazol-4-yl)amino]pyrimidin-5-yl]phenyl]-N-[[6-(trifluoromethyl)-3-pyridyl]methyl]acetamide] yielded a pIC50 (FLT3-ITD) of 5.00 to 10.00 and a pIC50 [1] of 5.00 to 10.00.
For `Cn1cc(Nc2ncc(-c3ccc(CC(=O)NCc4ccccn4)c(F)c3)cn2)cn1` [Compound P-0088, 2-[2-fluoro-4-[2-[(1-methylpyrazol-4-yl)amino]pyrimidin-5-yl]phenyl]-N-(2-pyridylmethyl)acetamide], the pIC50 (FLT3-ITD) was 5.00 to 10.00 and the pIC50 [1] was 5.00 to 10.00.
Work on `COc1ncc(NC(=O)Cc2ccc(-c3cnc(Nc4cnn(C)c4)nc3)cc2F)cc1C(F)(F)F` [Compound P-0089, 2-[2-fluoro-4-[2-[(1-methylpyrazol-4-yl)amino]pyrimidin-5-yl]phenyl]-N-[6-methoxy-5-(trifluoromethyl)-3-pyridyl]acetamide] yielded a pIC50 (FLT3-ITD) of 5.00 to 10.00 and a pIC50 [1] of 5.00 to 10.00.
`Cn1cc(Nc2ncc(-c3ccc(CC(=O)Nc4cncc(C(C)(F)F)c4)c(F)c3)cn2)cn1` [Compound P-0090, N-[5-(1,1-difluoroethyl)-3-pyridyl]-2-[2-fluoro-4-[2-[(1-methylpyrazol-4-yl)amino]pyrimidin-5-yl]phenyl]acetamide] showed a pIC50 (FLT3-ITD) of 5.00 to 10.00 and a pIC50 [1] of 5.00 to 10.00.
In the case of `Cn1cc(Nc2ncc(-c3ccc(CC(=O)NCc4ccc(C(F)(F)F)cn4)cc3)cn2)cn1` [Compound P-0162, 2-[4-[2-[(1-methylpyrazol-4-yl)amino]pyrimidin-5-yl]phenyl]-N-[[5-(trifluoromethyl)-2-pyridyl]methyl]acetamide], the pIC50 (FLT3-ITD) was 5.00 to 10.00 and the pIC50 [1] was 5.00 to 10.00.
